The values that follow come from PMC5908784, “Extracellular loops 2 and 3 of the calcitonin receptor selectively modify agonist binding and efficacy” (Biochemical Pharmacology, 2018).

Holding throughout (assay type): cell-based
The target in one experiment is T1, hCTR W361A (Homo sapiens, UniProt P30988, W361A).
T1 construct: expressed in transfected cells
T1 sequence (P30988 25-474 W361A): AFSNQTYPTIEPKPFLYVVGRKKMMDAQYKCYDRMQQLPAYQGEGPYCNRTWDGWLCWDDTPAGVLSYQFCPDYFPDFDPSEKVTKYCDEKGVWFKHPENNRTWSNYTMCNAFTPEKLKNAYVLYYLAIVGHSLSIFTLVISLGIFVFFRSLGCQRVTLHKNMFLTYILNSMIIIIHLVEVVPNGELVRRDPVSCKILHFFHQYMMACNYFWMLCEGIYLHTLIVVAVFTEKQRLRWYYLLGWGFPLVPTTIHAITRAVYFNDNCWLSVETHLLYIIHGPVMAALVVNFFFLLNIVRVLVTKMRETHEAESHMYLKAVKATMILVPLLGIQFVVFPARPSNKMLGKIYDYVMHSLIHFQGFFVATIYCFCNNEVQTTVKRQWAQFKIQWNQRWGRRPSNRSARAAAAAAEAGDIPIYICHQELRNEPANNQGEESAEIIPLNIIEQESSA
Briefly: IP1 accumulation. As to conditions: mean ± S.E.M.; for Emax: IP1 maximal response, SEM. In outline: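 HTRF IP-One readout of IP1 after 60 min ligand stimulation (LiCl present), cells seeded overnight. Normalized to 100 μM ATP max response. EC50/Emax via 3-parameter logistic curve fit.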

In a further experiment the target is T2, hCTR G369A (Homo sapiens, UniProt P30988, G369A).
T2 construct: c-Myc (N); expressed in transfected cells
T2 sequence (P30988 25-474 G369A): T1 sequence (P30988 25-474 W361A) with A337W, G345A
Briefly: ERK1/2 phosphorylation. As to conditions: CV1-FlpIn cells, mean ± S.E.M.; for Emax: pERK maximal response; for EC50: pERK, three-parameter logistic fit. The method, then:
(§1) Cells (2.5 × 10^4 cells/well) were seeded into 96-well culture plates and incubated overnight. […] Data were normalized to the maximal response elicited by 10% FBS determined at 6 min.
(§2) Data were corrected for radioligand occupancy using the Cheng-Prusoff equation in Prism; as such data are reported as pKi. Emax and EC50 were estimated from concentration-response curves using with a 3-parameter logistic equation in Prism (v7). These values are a composite of functional affinity, efficacy and stimulus response coupling. […] Significance was accepted at P < 0.05.

Another experiment addresses T3, hCTR V293A (Homo sapiens, UniProt P30988, V293A).
T3 construct: c-Myc (N); expressed in transfected cells
T3 sequence (P30988 25-474 V293A): T1 sequence (P30988 25-474 W361A) with V269A, A337W
The experiment can be described thus: ERK1/2 phosphorylation. As to conditions: CV1-FlpIn cells, mean ± S.E.M.; for Emax: pERK maximal response; for EC50: pERK, three-parameter logistic fit. The method, then: as §1, §2

Another experiment concerns the target T4, hCTR I300A (Homo sapiens, UniProt P30988, I300A).
T4 construct: c-Myc (N); expressed in transfected cells
T4 sequence (P30988 25-474 I300A): T1 sequence (P30988 25-474 W361A) with I276A, A337W
The experiment can be described thus: ERK1/2 phosphorylation. Particulars: CV1-FlpIn cells, mean ± S.E.M.; for Emax: pERK maximal response; for EC50: pERK, three-parameter logistic fit. The method, then: as §1, §2

The next experiment concerns the target T5, hCTR Y374A (Homo sapiens, UniProt P30988, Y374A).
T5 construct: c-Myc (N); expressed in transfected cells
T5 sequence (P30988 25-474 Y374A): T1 sequence (P30988 25-474 W361A) with A337W, Y350A
The experiment can be described thus: ERK1/2 phosphorylation. Particulars: CV1-FlpIn cells, mean ± S.E.M.; for Emax: pERK maximal response; for EC50: pERK, three-parameter logistic fit. The method, then: as §1, §2

Substitutions are numbered along the chain they refer to. Where a SMILES comes first, the peptide text is derived from it. Bridges are numbered along the chain shown (N, C = ends).

One may read the Emax as the maximal effect, on the per cent scale that the assay sets. For the compound `CC[C@H](C)[C@H](NC(=O)[C@H](C)NC(=O)[C@@H](NC(=O)[C@H](CCC(N)=O)NC(=O)[C@@H]1CCCN1C(=O)[C@H](Cc1ccccc1)NC(=O)[C@@H](NC(=O)[C@H](Cc1c[nH]cn1)NC(=O)[C@H](Cc1ccccc1)NC(=O)[C@H](CCCCN)NC(=O)[C@H](CC(N)=O)NC(=O)[C@H](Cc1ccccc1)NC(=O)[C@H](CC(=O)O)NC(=O)[C@H](CCC(N)=O)NC(=O)[C@@H](NC(=O)[C@H](Cc1ccc(O)cc1)NC(=O)[C@@H](NC(=O)CNC(=O)[C@H](CC(C)C)NC(=O)[C@H](CCSC)NC(=O)[C@@H]1CSSC[C@H](N)C(=O)NCC(=O)N[C@@H](CC(N)=O)C(=O)N[C@@H](CC(C)C)C(=O)N[C@@H](CO)C(=O)N[C@@H]([C@@H](C)O)C(=O)N1)[C@@H](C)O)[C@@H](C)O)[C@@H](C)O)[C@@H](C)O)C(=O)NCC(=O)N[C@H](C(=O)NCC(=O)N[C@@H](C)C(=O)N1CCC[C@H]1C(N)=O)C(C)C` [hCT], the Emax was 89 ± 9% on hCTR W361A; 141 ± 9% on hCTR G369A; 130 ± 8% on hCTR V293A; 65 ± 6% at hCTR I300A; 94 ± 4% at hCTR Y374A.
What is called EC50 is the concentration giving half of the maximal effect. Higher therefore signals lower potency in that assay. As for `CC(C)C[C@H](NC(=O)CNC(=O)[C@H](C)NC(=O)[C@H](CC(C)C)NC(=O)[C@H](CCCNC(=N)N)NC(=O)[C@H](Cc1cnc[nH]1)NC(=O)[C@@H](NC(=O)[C@@H](NC(=O)[C@@H]1CSSC[C@H](NC(=O)[C@H](C)N)C(=O)N[C@@H](CC(=O)O)C(=O)N[C@@H]([C@@H](C)O)C(=O)N[C@@H](C)C(=O)N[C@@H]([C@@H](C)O)C(=O)N1)C(C)C)[C@@H](C)O)C(=O)N[C@@H](CC(C)C)C(=O)N[C@@H](CO)C(=O)N[C@@H](CCCNC(=N)N)C(=O)N[C@@H](CO)C(=O)NCC(=O)NCC(=O)N[C@H](C(=O)N[C@H](C(=O)N[C@@H](CCCCN)C(=O)N[C@@H](CC(N)=O)C(=O)N[C@@H](CC(N)=O)C(=O)N[C@@H](Cc1ccccc1)C(=O)N[C@H](C(=O)N1CCC[C@H]1C(=O)N[C@H](C(=O)N[C@@H](CC(N)=O)C(=O)N[C@H](C(=O)NCC(=O)N[C@@H](CO)C(=O)N[C@@H](CCCCN)C(=O)N[C@@H](C)C(=O)N[C@@H](Cc1ccccc1)C(N)=O)C(C)C)[C@@H](C)O)C(C)C)C(C)C)C(C)C` [hαCGRP], the Emax at hCTR G369A is 87 ± 14%; on hCTR V293A, 149 ± 22%; on hCTR I300A it was 61 ± 13%; on hCTR Y374A, 49 ± 8%. Moreover, the EC50 was 81.3 nM on hCTR G369A, 52.5 nM at hCTR V293A, 67.6 nM on hCTR I300A and 61.7 nM at hCTR Y374A.
Regarding `CSCC[C@H](NC(=O)CNC(=O)[C@H](CO)NC(=O)[C@H](Cc1ccccc1)NC(=O)[C@H](CCCNC(=N)N)NC(=O)[C@H](Cc1c[nH]cn1)NC(=O)[C@H](Cc1ccccc1)NC(=O)[C@H](CC(N)=O)NC(=O)[C@H](CC(N)=O)NC(=O)[C@H](CC(C)C)NC(=O)[C@H](CC(N)=O)NC(=O)[C@H](CCCNC(=N)N)NC(=O)[C@H](Cc1c[nH]c2ccccc12)NC(=O)[C@H](Cc1ccc(O)cc1)NC(=O)[C@H](C)NC(=O)[C@H](CO)NC(=O)[C@H](CC(C)C)NC(=O)[C@@H](NC(=O)[C@@H]1CSSC[C@H](N)C(=O)N[C@@H](CO)C(=O)N[C@@H](CC(N)=O)C(=O)N[C@@H](CC(C)C)C(=O)N[C@@H](CO)C(=O)N[C@@H]([C@@H](C)O)C(=O)N1)C(C)C)C(=O)NCC(=O)N[C@@H](Cc1ccccc1)C(=O)NCC(=O)N1CCC[C@H]1C(=O)N[C@@H](CCC(=O)O)C(=O)N[C@H](C(=O)N1CCC[C@H]1C(N)=O)[C@@H](C)O` [pCT] (H-CSNLSTCVLSAYWRNLNNFHRFSGMGFGPETP-NH2; disulfide 1-7), the EC50 at hCTR W361A (IP1, CV1-FlpIn cells, 60 min, LiCl) was 8.32 nM; on hCTR G369A, 5.25 nM; on hCTR V293A, 3.16 nM; at hCTR I300A, 0.282 nM; on hCTR Y374A it was 2.69 nM. Further, the Emax on hCTR W361A is 80 ± 6%; on hCTR G369A, 128 ± 8%; on hCTR V293A it was 136 ± 11%; on hCTR I300A, 54 ± 3%; on hCTR Y374A, 105 ± 8%.
For the compound `CC(C)C[C@H](NC(=O)[C@H](CC(N)=O)NC(=O)[C@H](CC(N)=O)NC(=O)[C@H](CO)NC(=O)[C@H](CO)NC(=O)[C@H](CCCNC(=N)N)NC(=O)[C@@H](NC(=O)[C@H](CC(C)C)NC(=O)[C@H](Cc1ccccc1)NC(=O)[C@H](CC(N)=O)NC(=O)[C@H](C)NC(=O)[C@H](CC(C)C)NC(=O)[C@H](CCCNC(=N)N)NC(=O)[C@H](CCC(N)=O)NC(=O)[C@@H](NC(=O)[C@H](C)NC(=O)[C@@H]1CSSC[C@H](NC(=O)[C@@H](N)CCCCN)C(=O)N[C@@H](CC(N)=O)C(=O)N[C@@H]([C@@H](C)O)C(=O)N[C@@H](C)C(=O)N[C@@H]([C@@H](C)O)C(=O)N1)[C@@H](C)O)C(C)C)C(=O)NCC(=O)N1CCC[C@H]1C(=O)N[C@H](C(=O)N[C@@H](CC(C)C)C(=O)N1CCC[C@H]1C(=O)N1CCC[C@H]1C(=O)N[C@H](C(=O)N[C@@H](CC(N)=O)C(=O)N[C@H](C(=O)NCC(=O)N[C@@H](CO)C(=O)N[C@@H](CC(N)=O)C(=O)N[C@H](C(=O)N[C@@H](Cc1ccc(O)cc1)C(N)=O)[C@@H](C)O)C(C)C)[C@@H](C)O)C(C)C` [rAmy], the Emax was 63 ± 8% at hCTR G369A, 67 ± 8% at hCTR V293A, 44 ± 5% at hCTR I300A and 61 ± 5% on hCTR Y374A.
